Data on 2 compounds can be found in patent publication US7541367B2, “3-benzoimidazolyl-pyrazolopyridines useful in treating kinase disorders” (Janssen Pharmaceutica, N.V., priority 2005, dated 2009).

One may read the IC50 as the concentration at which inhibition is half-maximal.

One assay concerns the target T1, CDK1 (Homo sapiens, UniProt P06493).
T1 construct: purchased New England Biolabs, Beverly, Mass; 6020; host or cells: insect cells
Briefly: CDK-1 kinase screening assay (33P-ATP FlashPlate). As to conditions: human CDK1 with cyclin B; 10 μM ATP; 1 hr at 30° C. The assay is classed as biochemical.

In another assay the target is T2, Aurora-A (Mus musculus, UniProt P97477).
T2 construct: polyhistidine (N)
T2 sequence (P97477 1-395): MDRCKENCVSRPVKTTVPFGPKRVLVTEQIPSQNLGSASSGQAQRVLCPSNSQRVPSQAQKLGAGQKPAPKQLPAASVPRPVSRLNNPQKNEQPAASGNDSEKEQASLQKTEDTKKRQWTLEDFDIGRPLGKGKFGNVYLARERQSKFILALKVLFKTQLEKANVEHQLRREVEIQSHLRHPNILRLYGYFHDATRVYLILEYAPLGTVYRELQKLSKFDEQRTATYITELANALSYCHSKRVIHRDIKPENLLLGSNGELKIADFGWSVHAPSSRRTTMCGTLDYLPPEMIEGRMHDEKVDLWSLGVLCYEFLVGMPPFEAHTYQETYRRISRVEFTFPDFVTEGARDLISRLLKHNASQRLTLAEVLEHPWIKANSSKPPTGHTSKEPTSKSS
Briefly: Aurora-A kinase screening assay (33P-ATP FlashPlate).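 Further: His-tagged mouse Aurora-A phosphorylating a biotinylated peptide captured on streptavidin plates, read as 33P uptake by scintillation counting, 1% DMSO, inhibition scaled between per-plate maximum and minimum signals.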 As to conditions: 10 μM ATP, 1 hr at 30° C. Format: biochemical.

The test system of assay [1] is HeLa cervical adenocarcinoma. The assay is described as follows: Cell Proliferation Inhibition Assay (14C-thymidine incorporation), HeLa.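 Further: test compound in DMSO added to cells seeded in scintillating 96-well plates, DMSO-only wells as control, uptake of methyl 14C-thymidine into new DNA counted.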 The assay is classed as cell-based. The following applies: Homo sapiens, HeLa, HeLa cells.

Structures are written as SMILES.

T1 sequence (P06493 whole entry): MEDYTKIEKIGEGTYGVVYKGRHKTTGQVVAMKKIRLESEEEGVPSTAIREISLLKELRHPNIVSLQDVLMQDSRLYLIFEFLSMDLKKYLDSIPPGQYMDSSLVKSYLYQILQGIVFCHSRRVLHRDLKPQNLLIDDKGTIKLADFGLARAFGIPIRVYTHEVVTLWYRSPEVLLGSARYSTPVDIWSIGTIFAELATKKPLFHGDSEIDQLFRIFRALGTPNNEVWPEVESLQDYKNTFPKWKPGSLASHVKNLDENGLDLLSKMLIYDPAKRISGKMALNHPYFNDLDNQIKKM
T1 sequence (P14635 whole entry partner): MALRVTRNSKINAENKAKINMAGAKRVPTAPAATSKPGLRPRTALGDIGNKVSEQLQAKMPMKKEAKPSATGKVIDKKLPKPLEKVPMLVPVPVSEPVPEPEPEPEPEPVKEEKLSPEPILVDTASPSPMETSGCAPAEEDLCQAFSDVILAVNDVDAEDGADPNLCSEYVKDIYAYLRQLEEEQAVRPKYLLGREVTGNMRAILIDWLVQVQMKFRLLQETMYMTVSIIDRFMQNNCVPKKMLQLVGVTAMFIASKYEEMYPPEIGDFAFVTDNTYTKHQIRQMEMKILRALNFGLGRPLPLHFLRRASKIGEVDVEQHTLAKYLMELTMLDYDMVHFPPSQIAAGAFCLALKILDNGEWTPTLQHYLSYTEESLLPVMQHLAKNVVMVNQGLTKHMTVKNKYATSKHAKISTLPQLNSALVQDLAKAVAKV

In the case of `CNCc1cncc(-c2cnc3[nH]nc(-c4nc5cc(OC(F)(F)F)ccc5[nH]4)c3c2)c1` [Cpd 96, methyl-{5-[3-(5-trifluoromethoxy-1H-benzoimidazol-2-yl)-1H-pyrazolo[3,4-b]pyridin-5-yl]-pyridin-3-ylmethyl}-amine], the values for the IC50 against CDK1 and at Aurora-A were 0.9 to 1.3 nM and around 1000 nM, respectively.

In the case of `CCNCc1cncc(-c2cnc3[nH]nc(-c4nc5cc(OC)ccc5[nH]4)c3c2)c1` [Cpd 101, ethyl-{5-[3-(5-methoxy-1H-benzoimidazol-2-yl)-1H-pyrazolo[3,4-b]pyridin-5-yl]-pyridin-3-ylmethyl}-amine], the IC50 at CDK1 worked out at 0.8 nM; against Aurora-A it was 356 nM; in assay [1], 34.2 nM.
